In patent US20120045505A1, “FIXED DOSE DRUG COMBINATION FORMULATIONS” (Dr. Reddy's Laboratories, Inc., priority 2004, published 2012):

Assays:
[1] = In vitro dissolution of capsules, USP Type 1 (Basket) apparatus, 900 mL medium, 100 rpm; assay type: physicochemical
Description: Dissolution profiles for drugs in capsules prepared above are determined in various media using the USP procedure and the following conditions: Type 1 (Basket) apparatus; 900 mL medium; and 100 rpm rotation. Values in the following tables are cumulative percentages of the specified drug that dissolves in the specified times. […]

[2] = Storage stability of capsules in closed HDPE bottles at 40° C. and 75% relative humidity for 6 months: drug content and drug-related impurities; assay type: physicochemical
Description: Capsules prepared above are stored in closed high-density polyethylene (HDPE) bottles at 40° C. and 75% relative humidity for 6 months, and are analyzed for drug content and the levels of drug-related impurity formation.
Capsules prepared above are stored in closed HDPE bottles at 40° C. and 75% relative humidity for 6 months, and are analyzed for drug content and the levels of drug-related impurities.

[3] = Example 3 capsule, 0.1N HCl, 30 Minutes
[4] = Example 3 capsule, 0.1N HCl, 60 Minutes
[5] = Example 3 capsule, pH 2.1 SGF, 30 Minutes
[6] = Example 3 capsule, pH 2.1 SGF, 60 Minutes
[7] = Example 3 capsule, pH 4.5 Acetate buffer USP, 30 Minutes
[8] = Example 3 capsule, pH 4.5 Acetate buffer USP, 60 Minutes
[9] = Example 4 capsule, 0.1N HCl, 30 Minutes
[10] = Example 4 capsule, 0.1N HCl, 60 Minutes
[11] = Example 4 capsule, pH 2.1 SGF, 30 Minutes
[12] = Example 4 capsule, pH 2.1 SGF, 60 Minutes
[13] = Example 4 capsule, pH 4.5 Acetate buffer USP, 30 Minutes
[14] = Example 4 capsule, pH 4.5 Acetate buffer USP, 60 Minutes
[15] = Example 3 capsule, 6 Months at 40° C. and 75% relative humidity, closed HDPE bottles
[16] = Example 3 capsule, 6 Months, 40° C./75% RH
[17] = Example 4 capsule, 6 Months at 40° C. and 75% relative humidity, closed HDPE bottles
[18] = Example 4 capsule, 6 Months, 40° C./75% RH, capsule containing hydrochlorothiazide
[19] = Example 4 capsule, Initial, capsule containing hydrochlorothiazide
[20] = Example 4 capsule, pH 6.8 Phosphate buffer USP, 30 Minutes
[21] = Example 4 capsule, pH 6.8 Phosphate buffer USP, 60 Minutes
[22] = Example 4 capsule, 6 Months, 40° C./75% RH

SMILES	cumulative percentage of drug dissolved [1, 3]	cumulative percentage of drug dissolved [1, 4]	cumulative percentage of drug dissolved [1, 5]	cumulative percentage of drug dissolved [1, 6]	cumulative percentage of drug dissolved [1, 7]	cumulative percentage of drug dissolved [1, 8]	cumulative percentage of drug dissolved [1, 9]	cumulative percentage of drug dissolved [1, 10]	cumulative percentage of drug dissolved [1, 11]	cumulative percentage of drug dissolved [1, 12]	cumulative percentage of drug dissolved [1, 13]	cumulative percentage of drug dissolved [1, 14]	Assay (drug content) [2, 15]	Assay (drug content) ([2]; Example 3 capsule, Initial)	Assay (drug content) [2, 17]	Assay (drug content) ([2]; Example 4 capsule, Initial)	cumulative percentage of drug dissolved [1, 20]	cumulative percentage of drug dissolved [1, 21]	other results
CC(=O)Oc1ccccc1C(=O)O [Aspirin]	96%	98%	99%	100%	88%	89%	96%	98%	99%	100%	88%	89%	101.5 % of label content	100.3 % of label content	101.3 % of label content	101.2 % of label content	–	–	cumulative percentage of drug dissolved ([1]; Example 3 capsule, 0.01N HCl, 30 Minutes): 87%; cumulative percentage of drug dissolved ([1]; Example 3 capsule, 0.01N HCl, 60 Minutes): 89%; cumulative percentage of drug dissolved ([1]; Example 4 capsule, 0.01N HCl, 30 Minutes): 87%; cumulative percentage of drug dissolved ([1]; Example 4 capsule, 0.01N HCl, 60 Minutes): 89%; Impurity: Salicylic acid [2, 16]: 0.68 % of label content; Impurity: Salicylic acid ([2]; Example 3 capsule, Initial): 0.17 % of label content; Impurity: Salicylic acid [2, 18]: 0.31 % of label content; Impurity: Salicylic acid [2, 19]: 0.13 % of label content
CC(C)NCC(O)COc1ccc(CC(N)=O)cc1 (stereo not drawn) [Atenolol]	–	–	–	–	–	–	–	–	–	–	–	–	98.7 % of label content	100.3 % of label content	–	–	–	–	–
NS(=O)(=O)c1cc2c(cc1Cl)NCNS2(=O)=O [Hydrochlorothiazide]	–	–	–	–	–	–	100%	100%	88%	98%	91%	97%	–	–	99.3 % of label content	99.5 % of label content	82%	85%	Impurity: CTZ [2, 22]: 0.04 % of label content; Impurity: DSA [2, 22]: 0.07 % of label content; Impurity: CTZ ([2]; Example 4 capsule, Initial): 0.04 % of label content; Impurity: DSA ([2]; Example 4 capsule, Initial): 0.04 % of label content
NCCCC[C@H](N[C@@H](CCc1ccccc1)C(=O)O)C(=O)N1CCC[C@H]1C(=O)O [Lisinopril]	97%	96%	102%	105%	97%	96%	100%	100%	95%	98%	100%	102%	98.7 % of label content	98.5 % of label content	99.0 % of label content	97.8 % of label content	94%	95%	cumulative percentage of drug dissolved ([1]; Example 3 capsule, pH 6.5 SIF, 30 Minutes): 92%; cumulative percentage of drug dissolved ([1]; Example 3 capsule, pH 6.5 SIF, 60 Minutes): 97%; cumulative percentage of drug dissolved ([1]; Example 3 capsule, pH 6.8 Phosphate buffer USP, 30 Minutes): 96%; cumulative percentage of drug dissolved ([1]; Example 3 capsule, pH 6.8 Phosphate buffer USP, 60 Minutes): 96%; Impurity: RSS isomer [2, 16]: 0.12 % of label content; Impurity: SSS DKP [2, 16]: 0.009 % of label content; Impurity: RSS isomer ([2]; Example 3 capsule, Initial): 0.09 % of label content; Impurity: RSS isomer [2, 18]: 0.09 % of label content; Impurity: SSS DKP [2, 18]: 0.33 % of label content; Impurity: RSS isomer [2, 19]: 0.09 % of label content; Impurity: SSS DKP [2, 19]: 0.05 % of label content
